In brackets after ≈: the same amount, converted by molar mass. Read-outs that look alike come from different tables or passages of the source.
How the values were obtained:
E. coli GC 2236 = experiment: MIC, broth microdilution; conditions: Escherichia coli
E. coli GC 2231 = experiment: MIC, broth microdilution; conditions: Escherichia coli
E. coli GC 2235 = experiment: MIC, broth microdilution; conditions: Escherichia coli
E. coli GC 2232 = experiment: MIC, broth microdilution; conditions: Escherichia coli
E. coli GC 2234 = experiment: MIC, broth microdilution; conditions: Escherichia coli
E. coli GC 4559 = experiment: MIC, broth microdilution; conditions: Escherichia coli
S. typhimurium GC 2172 = experiment: MIC, broth microdilution; conditions: Salmonella enterica, TYPHIMURIUM
S. aureus GC 6466 = experiment: MIC, broth microdilution; conditions: Staphylococcus aureus
S. aureus GC 4536 = experiment: MIC, broth microdilution; conditions: Staphylococcus aureus
S. aureus GC 2216 = experiment: MIC, broth microdilution; conditions: Staphylococcus aureus
E. faecalis GC 4555 = experiment: MIC, broth microdilution; conditions: Enterococcus faecalis
E. faecalis GC 2242 = experiment: MIC, broth microdilution; conditions: Enterococcus faecalis
E. faecium GC 4556 = experiment: MIC, broth microdilution; conditions: Enterococcus faecium
S. pneumoniae* GC 4465 = experiment: MIC, broth microdilution; conditions: Streptococcus pneumoniae
S. pneumoniae+ GC 4465 = experiment: MIC, broth microdilution; conditions: Streptococcus pneumoniae
S. pyogenes GC 4563 = experiment: MIC, broth microdilution; conditions: Streptococcus pyogenes
S. agalactiae GC 4564 = experiment: MIC, broth microdilution; conditions: Streptococcus agalactiae
E. coli = experiment: Range of MIC for E. coli strains; conditions: Escherichia coli
Staph. = experiment: Range of MIC for Staph. strains, including MRSA; conditions: Staphylococcus aureus, MRSA
Staph. aureus Smith = experiment: In vivo activity (oral, iv; ED50) against Staph. aureus Smith in mice
[1] = read-out: MINIMAL INHIBITORY CONCENTRATION MIC, pre-incubated in Mouse Serum
[2] = read-out: MINIMAL INHIBITORY CONCENTRATION MIC, pre-incubated in Water

- MIC (E. coli GC 2236; GC2236, read-out: MINIMAL INHIBITORY CONCENTRATION MIC, pre-incubated in Mouse Serum): 2 µg/mL (≈ 2.6 µM)
- MIC (E. coli GC 2236; GC2236, read-out: MINIMAL INHIBITORY CONCENTRATION MIC, pre-incubated in Water): > 64 µg/mL
- MIC (E. coli GC 2231; GC2231, read-out: MINIMAL INHIBITORY CONCENTRATION MIC, pre-incubated in Mouse Serum): 2 µg/mL (≈ 2.6 µM)
- MIC (E. coli GC 2231; GC2231, read-out: MINIMAL INHIBITORY CONCENTRATION MIC, pre-incubated in Water): > 64 µg/mL
- MIC (E. coli GC 2235; GC2235, read-out: MINIMAL INHIBITORY CONCENTRATION MIC, pre-incubated in Mouse Serum): 1 µg/mL (≈ 1.3 µM)
- MIC (E. coli GC 2235; GC2235, read-out: MINIMAL INHIBITORY CONCENTRATION MIC, pre-incubated in Water): > 64 µg/mL
- MIC (E. coli GC 2232; GC2232, read-out: MINIMAL INHIBITORY CONCENTRATION MIC, pre-incubated in Mouse Serum): 1 µg/mL (≈ 1.3 µM)
- MIC (E. coli GC 2232; GC2232, read-out: MINIMAL INHIBITORY CONCENTRATION MIC, pre-incubated in Water): > 64 µg/mL
- MIC (E. coli GC 2234; GC2234, read-out: MINIMAL INHIBITORY CONCENTRATION MIC, pre-incubated in Mouse Serum): 1 µg/mL (≈ 1.3 µM)
- MIC (E. coli GC 2234; GC2234, read-out: MINIMAL INHIBITORY CONCENTRATION MIC, pre-incubated in Water): > 64 µg/mL
- MIC (E. coli GC 4559; GC4559, read-out: MINIMAL INHIBITORY CONCENTRATION MIC, pre-incubated in Mouse Serum): 2 µg/mL (≈ 2.6 µM)
- MIC (E. coli GC 4559; GC4559, read-out: MINIMAL INHIBITORY CONCENTRATION MIC, pre-incubated in Water): > 64 µg/mL
- MIC (S. typhimurium GC 2172; [1]): 4 µg/mL (≈ 5.2 µM)
- MIC (S. typhimurium GC 2172; [2]): > 64 µg/mL
- MIC (S. aureus GC 6466; GC6466, read-out: MINIMAL INHIBITORY CONCENTRATION MIC, pre-incubated in Mouse Serum): 0.25 µg/mL (≈ 0.325 µM)
- MIC (S. aureus GC 6466; GC6466, read-out: MINIMAL INHIBITORY CONCENTRATION MIC, pre-incubated in Water): 0.5 µg/mL (≈ 0.649 µM)
- MIC (S. aureus GC 4536; GC4536, read-out: MINIMAL INHIBITORY CONCENTRATION MIC, pre-incubated in Mouse Serum): 1 µg/mL (≈ 1.3 µM)
- MIC (S. aureus GC 4536; GC4536, read-out: MINIMAL INHIBITORY CONCENTRATION MIC, pre-incubated in Water): 2 µg/mL (≈ 2.6 µM)
- MIC (S. aureus GC 2216; GC2216, read-out: MINIMAL INHIBITORY CONCENTRATION MIC, pre-incubated in Mouse Serum): 1 µg/mL (≈ 1.3 µM)
- MIC (S. aureus GC 2216; GC2216, read-out: MINIMAL INHIBITORY CONCENTRATION MIC, pre-incubated in Water): 4 µg/mL (≈ 5.2 µM)
- MIC (E. faecalis GC 4555; GC4555, read-out: MINIMAL INHIBITORY CONCENTRATION MIC, pre-incubated in Mouse Serum): 1 µg/mL (≈ 1.3 µM)
- MIC (E. faecalis GC 4555; GC4555, read-out: MINIMAL INHIBITORY CONCENTRATION MIC, pre-incubated in Water): 4 µg/mL (≈ 5.2 µM)
- MIC (E. faecalis GC 2242; GC2242, read-out: MINIMAL INHIBITORY CONCENTRATION MIC, pre-incubated in Mouse Serum): 2 µg/mL (≈ 2.6 µM)
- MIC (E. faecalis GC 2242; GC2242, read-out: MINIMAL INHIBITORY CONCENTRATION MIC, pre-incubated in Water): 4 µg/mL (≈ 5.2 µM)
- MIC (E. faecium GC 4556; GC4556, read-out: MINIMAL INHIBITORY CONCENTRATION MIC, pre-incubated in Mouse Serum): 2 µg/mL (≈ 2.6 µM)
- MIC (E. faecium GC 4556; GC4556, read-out: MINIMAL INHIBITORY CONCENTRATION MIC, pre-incubated in Water): 4 µg/mL (≈ 5.2 µM)
- MIC (S. pneumoniae* GC 4465; [1]): 0.12 µg/mL (≈ 0.156 µM)
- MIC (S. pneumoniae* GC 4465; [2]): 0.12 µg/mL (≈ 0.156 µM)
- MIC (S. pneumoniae+ GC 4465; [1]): 4 µg/mL (≈ 5.2 µM)
- MIC (S. pneumoniae+ GC 4465; [2]): 8 µg/mL (≈ 10.4 µM)
- MIC (S. pyogenes GC 4563; GC4563, read-out: MINIMAL INHIBITORY CONCENTRATION MIC, pre-incubated in Mouse Serum): 0.12 µg/mL (≈ 0.156 µM)
- MIC (S. pyogenes GC 4563; GC4563, read-out: MINIMAL INHIBITORY CONCENTRATION MIC, pre-incubated in Water): 0.25 µg/mL (≈ 0.325 µM)
- MIC (S. agalactiae GC 4564; GC4564, read-out: MINIMAL INHIBITORY CONCENTRATION MIC, pre-incubated in Mouse Serum): 0.25 µg/mL (≈ 0.325 µM)
- MIC (S. agalactiae GC 4564; GC4564, read-out: MINIMAL INHIBITORY CONCENTRATION MIC, pre-incubated in Water): 0.25 µg/mL (≈ 0.325 µM)
- MIC (E. coli; 20 h, read-out: Range of MIC, E. coli (Mouse Serum)): 1 to 8 µg/mL (≈ 1.3 to 10.4 µM)
- MIC (E. coli; read-out: Minimum inhibitory concentration (MIC), E. coli (mouse serum)): 1 to 8 µg/mL (≈ 1.3 to 10.4 µM)
- MIC (E. coli; read-out: Minimum inhibitory concentration (MIC), E. coli (water)): > 64 µg/mL
- MIC (E. coli; read-out: Range of MIC, E. coli (Water)): > 64 µg/mL
- MIC (Staph.; read-out: Minimum inhibitory concentration (MIC), Staph. (mouse serum)): 0.25 to 4 µg/mL (≈ 0.325 to 5.2 µM)
- MIC (Staph.; read-out: Minimum inhibitory concentration (MIC), Staph. (water)): 0.5 to 8 µg/mL (≈ 0.649 to 10.4 µM)
- MIC (Staph.; read-out: Range of MIC, Staph (Mouse Serum)): 0.25 to 4 µg/mL (≈ 0.325 to 5.2 µM)
- MIC (Staph.; read-out: Range of MIC, Staph (Water)): 0.5 to 8 µg/mL (≈ 0.649 to 10.4 µM)
Structure (SMILES): CCCCN(CC(=O)Nc1cc(N(C)C)c2c(c1O)C(=O)C1=C(O)[C@]3(O)C(=O)C(C(N)=O)=C(O)[C@@H](N(C)C)[C@@H]3C[C@@H]1C2)C(=O)OCOC(=O)c1cccs1 [Example 23, ({[(2-{[(5aR,6aS,7S,10aS)-9-(aminocarbonyl)-4,7-bis(dimethylamino)-1,8,10a,11-tetrahydroxy-10,12-dioxo-5,5a,6,6a,7,10,10a,12-octahydrotetracen-2-yl]amino}-2-oxoethyl)(butyl)amino]carbonyl}oxy)methyl thiophene-2-carboxylate]
- ED50 (Staph. aureus Smith; Staphylococcus aureus, in Mus musculus, po, read-out: ED50 Staph Smith SOD): 19 mg/kg
- ED50 (Staph. aureus Smith; iv, read-out: ED50 Staph Smith SIV): 0.47 mg/kg
